Measurements published in patent US9199970B2, “4-[5-(pyridin-4-yl)-1H-1,2,4-triazol-3-yl]pyridine-2-carbonitrile crystalline polymorph and production method therefor” (FUJIYAKUHIN CO., LTD., priority 2012, dated 2015).
Values after ≈ are worked out from the molar mass of the structure shown.

Test: Solubility test of various crystal forms (water solubility)
Assay type: physicochemical
Details: concentration of saturated solution determined through measuring absorbance (FIG. 8)
Protocol: Solubility Test of Various Crystal Forms
The water solubilities of type I crystals, type II crystals, and the hydrate of compound (1) were determined by calculating each sample concentration of its saturated solution determined through measuring absorbance.

| SMILES | water solubility |
| --- | --- |
| N#Cc1cc(-c2n[nH]c(-c3ccncc3)n2)ccn1 [hydrate, 4-[5-(pyridin-4-yl)-1H-1,2,4-triazol-3-yl]pyridine-2-carbonitrile] | 1.9 µg/mL |
| N#Cc1cc(-c2n[nH]c(-c3ccncc3)n2)ccn1 [type I crystals, 4-[5-(pyridin-4-yl)-1H-1,2,4-triazol-3-yl]pyridine-2-carbonitrile] | 6.2 µg/mL (≈ 25 µM) |
| N#Cc1cc(-c2n[nH]c(-c3ccncc3)n2)ccn1 [type II crystals, 4-[5-(pyridin-4-yl)-1H-1,2,4-triazol-3-yl]pyridine-2-carbonitrile] | 4.2 µg/mL (≈ 16.9 µM) |
